Target: T1, human GCGR (Homo sapiens, UniProt P47871)
T1 construct: expressed in transfected cells; host or cells: HEK293 (hGluc-1HEK), pcDNA3.1, G418 selection
Experiment: Cellular functional assay, cAMP readout (glucagon-stimulated cAMP, LANCE TR-FRET)
Format: cell-based
Details: HEK293 cells stably expressing full-length human GCGR; glucagon 100 pM; IC50 converted to Ki; read-out: Inhibition of cAMP Ki
Protocol: IC50 Values in Cellular Functional Assays: cAMP Readout
Full-length human GCGR (Accession Number: NM000160) subcloned into pcDNA3.1 was stably transfected into HEK293 cells (hGluc-1HEK) and maintained under G418 selection (500 μg/mL). Cell cultures were maintained in DMEM/F12 media supplemented with 10% FBS and 1% GlutaMax™ Supplement (Available from ThermoFisher Scientific, catalog #35050061). Glucagon stimulated cAMP was quantified using LANCE technology as per manufacturer instructions. On the day of the experiment, spent media was removed and cells were washed with Hank's Buffered Saline solution (HBSS), and cells harvested with non-enzymatic cell dissociation solution, then washed once with HBSS. Cells were re-suspended in stimulation buffer at a concentration of 0.83×10^6 cells/ml and cAMP detection antibody was added. 6 μl/well of this solution was then dispensed in a 384 well plate (cell density 5000 cells/well). Test compound was serially diluted in DMSO and 50 nl were dispensed on top of the cell solution and allowed to incubate for 30 minutes. 6 μl of a 2× glucagon solution (final concentration in assay 100 pM) was then added and the reaction was terminated after 5 minutes with the addition of detection mix. The resulting mixture was incubated, protected from light for 1.5 h. cAMP levels were quantified by TR-FRET in an EnVision instrument against a known standard. IC50's were generated by using a non-linear regression macro driven in Excel and converted to Ki values.

T1 sequence (P47871 26-477): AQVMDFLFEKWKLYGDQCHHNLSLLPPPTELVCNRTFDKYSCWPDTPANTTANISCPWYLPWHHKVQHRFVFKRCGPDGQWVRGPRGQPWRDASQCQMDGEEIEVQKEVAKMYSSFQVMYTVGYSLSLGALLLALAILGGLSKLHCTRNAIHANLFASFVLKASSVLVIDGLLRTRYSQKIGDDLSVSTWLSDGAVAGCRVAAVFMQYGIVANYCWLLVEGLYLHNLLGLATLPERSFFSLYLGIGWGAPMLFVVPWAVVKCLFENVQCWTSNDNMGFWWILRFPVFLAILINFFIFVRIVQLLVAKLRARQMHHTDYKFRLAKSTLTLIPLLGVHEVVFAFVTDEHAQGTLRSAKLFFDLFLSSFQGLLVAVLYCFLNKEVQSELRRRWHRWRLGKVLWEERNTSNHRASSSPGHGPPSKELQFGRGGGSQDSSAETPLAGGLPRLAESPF

Structure (SMILES)	Ki [nM]
CC(C)CC(c1ccc(C(=O)NCCC(=O)O)nc1)n1ncc2cc(-c3ccc(OC(F)(F)F)cc3)ccc21 (centres unmarked) [Compound #114, 3-(5-(3-Methyl-1-(5-(4-(trifluoromethoxy)phenyl)-1H-indazol-1-yl)butyl)picolinamido)propanoic acid]	650
O=C(O)CCNC(=O)c1ccc(C(CCC(F)(F)F)n2ncc3cc(-c4cc5ccccc5s4)ccc32)cc1 (centres unmarked) [Compound #115, 3-[[4-[1-[5-(Benzothiophen-2-yl)indazol-1-yl]-4,4,4-trifluorobutyl]benzoyl]amino]propanoic acid]	140
O=C(O)CCNC(=O)c1ccc(C(CCC(F)(F)F)n2cc3cc(-c4cc5ccccc5s4)ccc3n2)cc1 (centres unmarked) [Compound #122, 3-[[4-[1-[5-(Benzothiophen-2-yl)indazol-2-yl]-4,4,4-trifluorobutyl]benzoyl]amino]propanoic acid]	125
Cc1c(-c2ccc(Cl)cc2Cl)ccc2c1cnn2C(CC(C)C)c1ccc(C(=O)NCCC(=O)O)cc1 (centres unmarked) [Compound #127, 3-(4-(1-(5-(2,4-Dichlorophenyl)-4-methyl-1H-indazol-1-yl)-3-methylbutyl)benzamido)propanoic acid]	310
Cc1cc2nn(C(CC(C)C)c3ccc(C(=O)NCCC(=O)O)cc3)cc2cc1-c1ccc(C(F)(F)F)cc1 (centres unmarked) [Compound #134, 3-[[4-[3-Methyl-1-[6-methyl-5-[4-(trifluoromethyl)phenyl]indazol-2-yl]butyl]benzoyl]amino]propanoic acid]	195
Cc1cc(C(F)(F)F)ccc1-c1ccc2c(cnn2C(CC(C)C)c2ccc(C(=O)NCCC(=O)O)cc2)c1Cl (centres unmarked) [Compound #135, 3-(4-(1-(4-Chloro-5-(2-methyl-4-(trifluoromethyl)phenyl)-1H-indazol-1-yl)-3-methylbutyl)benzamido)propanoic acid]	100
COc1c(-c2ccc(C(F)(F)F)cc2Cl)ccc2nn(C(CC(C)C)c3ccc(C(=O)NCCC(=O)O)cc3)cc12 (centres unmarked) [Compound #137, 3-(4-(1-(5-(2-Chloro-4-(trifluoromethyl)phenyl)-4-methoxy-2H-indazol-2-yl)-3-methylbutyl)benzamido)propanoic acid]	22
Cc1cc(Cl)ccc1-c1cc2cn(C(CC(C)C)c3ccc(C(=O)NCCC(=O)O)nc3)nc2cc1Cl (centres unmarked) [Compound #140, 3-[[5-[1-[6-Chloro-5-(4-chloro-2-methyl-phenyl)indazol-2-yl]-3-methyl-butyl]pyridine-2-carbonyl]amino]propanoic acid]	125
CC(C)CC(c1ccc(C(=O)NCCC(=O)O)cc1)n1ncc2c(Cl)c(-c3ccc(C(F)(F)F)cc3Cl)ccc21 (centres unmarked) [Compound #141, 3-(4-(1-(4-Chloro-5-(2-chloro-4-(trifluoromethyl)phenyl)-1H-indazol-1-yl)-3-methylbutyl)benzamido)propanoic acid]	115
Cc1ccc(-c2ccc3nn(C(CC(C)C)c4ccc(C(=O)NCCC(=O)O)cc4)cc3c2C)c(C)c1 (centres unmarked) [Compound #143, 3-(4-(1-(5-(2,4-Dimethylphenyl)-4-methyl-2H-indazol-2-yl)-3-methylbutyl)benzamido)propanoic acid]	24
Cc1cc(C(F)(F)F)ccc1-c1cc2cnn(C(CC(C)C)c3ccc(C(=O)NCCC(=O)O)nc3)c2cc1Cl (centres unmarked) [Compound #146, 3-[[5-[1-[6-Chloro-5-[2-methyl-4-(trifluoromethyl)phenyl]indazol-1-yl]-3-methyl-butyl]pridine-2-carbonyl]amino]propanoic acid]	160
CC(C)CC(c1ccc(C(=O)NCCC(=O)O)cc1)n1cc2c(Cl)c(-c3ccc(C(F)(F)F)cc3)ccc2n1 (centres unmarked) [Compound #147, 3-(4-(1-(4-Chloro-5-(4-(trifluoromethyl)phenyl)-2H-indazol-2-yl)-3-methylbutyl)benzamido)prop-anoic acid]	40
Cc1ccc(-c2ccc3nn(C(CC(C)C)c4ccc(C(=O)NCCC(=O)O)cc4)cc3c2C)c(Cl)c1 (centres unmarked) [Compound #148, 3-(4-(1-(5-(2-Chloro-4-methylphenyl)-4-methyl-2H-indazol-2-yl)-3-methylbutyl)benzamido)propanoic acid]	57
Cc1c(-c2ccc(C(F)(F)F)c(Cl)c2)ccc2nn(C(CC(C)C)c3ccc(C(=O)NCCC(=O)O)cc3)cc12 (centres unmarked) [Compound #149, 3-(4-(1-(5-(3-Chloro-4-(trifluoromethyl)phenyl)-4-methyl-2H-indazol-2-yl)-3-methylbutyl)benzamido)propanoic acid]	70
COc1c(-c2ccc(C(F)(F)F)cc2Cl)ccc2nn([C@@H](CC(C)C)c3ccc(C(=O)NCCC(=O)O)cc3)cc12 [Compound #150, 3-[[4-[(1S)-1-[5-[2-Chloro-4-(trifluoromethyl)phenyl]-4-methoxy-indazol-2-yl]-3-methyl-butyl]benzoyl]amino]propanoic acid]	35
Cc1c(-c2ccc(C(F)(F)F)cc2Cl)ccc2nn(C(CC(C)C)c3ccc(C(=O)NCCC(=O)O)nc3)cc12 (centres unmarked) [Compound #154, 3-(5-(1-(5-(2-Chloro-4-(trifluoromethyl)phenyl)-4-methyl-2H-indazol-2-yl)-3-methylbutyl)picolinamido)propanoic acid]	13
Cc1cc(C(F)(F)F)ccc1-c1ccc2nn(C(CC(C)C)c3ccc(C(=O)NCCC(=O)O)nc3)cc2c1C (centres unmarked) [Compound #155, 3-(5-(3-Methyl-1-(4-methyl-5-(2-methyl-4-(trifluoromethyl)phenyl)-2H-indazol-2-yl)butyl)picolinamido)propanoic acid]	9
Cc1cc(C(F)(F)F)ccc1-c1ccc2nn([C@@H](CC(C)C)c3ccc(C(=O)NCCC(=O)O)cc3)cc2c1C [Compound #156, 3-[[4-[(1S)-3-Methyl-1-[4-methyl-5-[2-methyl-4-(trifluoromethyl)phenyl]indazol-2-yl]butyl]benzoyl]amino]propanoic acid]	22
Cc1cc2c(cnn2C(CC(C)C)c2ccc(C(=O)NCCC(=O)O)cc2)cc1-c1cc2cc(F)ccc2s1 (centres unmarked) [Compound #158, 3-[[4-[1-[5-(5-Fluorobenzothiophen-2-yl)-6-methyl-indazol-1-yl]-3-methyl-butyl]benzoyl]amino]propanoic acid]	190
CC(c1ccc(C(=O)NCCC(=O)O)cc1)n1cc2cc(-c3ccc(C(C)(C)C)cc3)ccc2n1 (centres unmarked) [Compound #161, 3-(4-(1-(5-(4-(tert-butyl)phenyl)-2H-indazol-2-yl)ethyl)benzamido) propanoic acid]	3200
O=C(O)CCNC(=O)c1ccc(C(CCC(F)(F)F)n2ncc3cc(-c4ccc(C(F)(F)F)cc4Cl)ccc32)cc1 (centres unmarked) [Compound #167, 3-[[4-[1-[5-[2-Chloro-4-(trifluoromethyl)phenyl]indazol-1-yl]-4,4,4-trifluorobutyl]benzoyl]amino]propanoic acid]	270
Cc1cc(Cl)ccc1-c1ccc2nn(C(CC(C)C)c3ccc(C(=O)NCCC(=O)O)cc3)cc2c1 (centres unmarked) [Compound #168]	191
Cc1cc2c(cnn2C(CC(C)C)c2ccc(C(=O)NCCC(=O)O)cc2)cc1-c1cc2ccccc2s1 (centres unmarked) [Compound #174, 3-[[4-[1-[5-(Benzothiophen-2-yl)-6-methyl-indazol-1-yl]-3-methyl-butyl]benzoyl]amino]propanoic acid]	190
Cc1cc(C(F)(F)F)ccc1-c1cc2cn(C(CC(C)C)c3ccc(C(=O)NCCC(=O)O)nc3)nc2cc1Cl (centres unmarked) [Compound #176, 3-[[5-[1-[6-Chloro-5-[2-methyl-4-(trifluoromethyl)phenyl]indazol-2-yl]-3-methyl-butyl]pyridine-2-carbonyl]amino]propanoic acid]	50
Cc1ccc(-c2ccc3c(cnn3C(CC(C)C)c3ccc(C(=O)NCCC(=O)O)cc3)c2C)c(C)c1 (centres unmarked) [Compound #177, 3-(4-(1-(5-(2,4-Dimethylphenyl)-4-methyl-1H-indazol-1-yl)-3-methylbutyl)benzamido)propanoic acid]	485
COc1c(-c2ccc(C(F)(F)F)cc2Cl)ccc2nn(C(CC(C)C)c3ccc(C(=O)NCCC(=O)O)nc3)cc12 (centres unmarked) [Compound #178, 3-(5-(1-(5-(2-Chloro-4-(trifluoromethyl)phenyl)-4-methoxy-2H-indazol-2-yl)-3-methylbutyl)picolinamido)propanoic acid]	22
CCOc1c(-c2ccc(C(F)(F)F)cc2Cl)ccc2c1cnn2C(CC(C)C)c1ccc(C(=O)NCCC(=O)O)nc1 (centres unmarked) [Compound #179, 3-(5-(1-(5-(2-Chloro-4-(trifluoromethyl)phenyl)-4-ethoxy-1H-indazol-1-yl)-3-methylbutyl)picolinamido)propanoic acid]	24
CC(C)(F)CC(c1ccc(C(=O)NCCC(=O)O)cc1)n1ncc2cc(-c3ccc(C(F)(F)F)cc3)ccc21 (centres unmarked) [Compound #185, 3-(4-(3-Fluoro-3-methyl-1-(5-(4-(trifluoromethyl)phenyl)-1H-indazol-1-yl)butyl)benzamido)propanoic acid]	430
Cc1cc(C(F)(F)F)ccc1-c1cc2cn(C(CC(C)C)c3ccc(C(=O)NCCC(=O)O)nc3)nc2cc1C (centres unmarked) [Compound #187, 3-[[5-[3-Methyl-1-[6-methyl-5-[2-methyl-4-(trifluoromethyl)phenyl]indazol-2-yl]butyl]pyridine-2-carbonyl]amino]propanoic acid]	30

Source: patent US10000473B2, “Indazole derivatives useful as glucagon receptor antagonists” (Janssen Pharmaceutica NV, priority 2016, dated 2018)
